Patent publication US20230146455A1, “TREATMENT OF INFLAMMATORY DISEASES WITH PEPTIDES AND PHARMACEUTICAL COMPOSITIONS” (Yuyu Pharma, Inc., priority 2020, published 2023)
Several values for one entry are separate records, joined by “and”; a condition that tells them apart may be missing. Identical values can stand only once. Where a SMILES comes first, the peptide text is derived from it. [ ]: non-standard residue; d: D form. Hyp = O=C(O)[C@@H]1C[C@@H](O)CN1

System: CCL20/MIP-3 alpha
Experiment: Example 9 Luminex, LPS hPBMCs: CCL20/MIP-3 alpha
Format: cell-based, human
Experimental: Treatment Human PBMCs were pretreated with YY-101, YDE-011 and YDE-043 or reference compound; Xiidra® at various concentration (ranging from 1 nM to 100 uM) for 2 h before stimulation. An equal volume of 0.5% DMSO was used as a vehicle control. Then, the cells were treated with LPS at 5 ug/ml. The supernatants from treated cells were harvested at 24 h and placed in a 96 well for Luminex cytokine & chemokine profiling using a Luminex 200 multiplex assay (Luminex; R&D system, USA).
The main study arm with triplicate wells per group in a 24-well plate: • 1. Blank • 2. PBMC: 0.5% DMSO • 3. PBMC+LPS (5 ug/ml) • 4. PBMC+YY-101 100 uM • 5. PBMC+YY-101 10 uM • 6. PBMC+YY-101 1 uM • 7. PBMC+YY-101 0.1 uM • 8. PBMC+YY-101 0.01 uM • 9. PBMC+LPS (5 ug/ml)+Xiidra®100 uM • 10. PBMC+LPS (5 ug/ml)+Xiidra® 10 uM • 11. PBMC+LPS (5 ug/ml)+Xiidra® 1 uM • 12. PBMC+LPS (5 ug/ml)+Xiidra®0.1 uM • 13. PBMC+LPS (5 ug/ml)+Xiidra®0.01 uM • 14. PBMC+LPS (5 ug/ml)+Xiidra®0.001 uM • 15. PBMC+LPS (5 ug/ml)+YY-101 100 uM • 16. PBMC+LPS (5 ug/ml)+YY-101 10 uM • 17. PBMC+LPS (5 ug/ml)+YY-101 1 uM • 18. PBMC+LPS (5 ug/ml)+YY-101 0.1 uM • 19. PBMC+LPS (5 ug/ml)+YY-101 0.01 uM • 20. PBMC+LPS (5 ug/ml)+YY-101 0.001 uM • 21. PBMC+LPS (5 ug/ml)+YDE-011 100 uM • 22. PBMC+LPS (5 ug/ml)+YDE-011 10 uM • 23. PBMC+LPS (5 ug/ml)+YDE-011 1 uM • 24. PBMC+LPS (5 ug/ml)+YDE-011 0.1 uM • 25. PBMC+LPS (5 ug/ml)+YDE-011 0.01 uM • 26. PBMC+LPS (5 ug/ml)+YDE-011 0.001 uM • 27. PBMC+LPS (5 ug/ml)+YDE-043 100 uM • 28. PBMC+LPS (5 ug/ml)+YDE-043 10 uM • 29. PBMC+LPS (5 ug/ml)+YDE-043 1 uM • 30. PBMC+LPS (5 ug/ml)+YDE-043 0.1 uM • 31. PBMC+LPS (5 ug/ml)+YDE-043 0.01 uM • 32. PBMC+LPS (5 ug/ml)+YDE-043 0.001 uM
Multiplex assay was used to measure 30 cytokines and chemokines. The 1:2, 1:10 and 1:200 diluted cell supernatant and serial dilution of the standard were dispensed into a 96 well plate at 50 ul/well. Then, the pre-mixed cocktail of antibody-coated magnetic beads was dispensed at 50 ul/well and incubated at room temperature for 2 h in a horizontal orbital microplate shaker at 800±500 rpm. The beads were washed using a magnetic device to prevent loss. The biotin-antibody was dispensed in 50 ul of each well and incubated at room temperature for 1 h in a shaker at 800±500 rpm. After washing, streptavidin-PE was added at 50 ul/well and incubated at room temperature for 30 min in a shaker under the same conditions. Finally, after washing, wash buffer (100 ul/well) was added to the plate and incubated in a shaker for 2 min. The Luminex™ 200 setting were set according to the manufacturer's protocol. The data was calculated with a standard five-parameter logistic nonlinear regression analysis of the data (xPonent software 4.2, USA). The levels of cytokine/chemokine are normalized to the live cell counts (1×10^5 cells/mL) and presented as concentrations per mL (pg/mL or ng/mL).

[1] = PBMC + LPS(5 ug/ml) + test article 0.001 uM, Mean
[2] = PBMC + LPS(5 ug/ml) + test article 0.001 uM, individual replicate
[3] = PBMC + LPS(5 ug/ml) + test article 0.01 uM, Mean
[4] = PBMC + LPS(5 ug/ml) + test article 0.01 uM, individual replicate
[5] = PBMC + LPS(5 ug/ml) + test article 0.1 uM, Mean
[6] = PBMC + LPS(5 ug/ml) + test article 0.1 uM, individual replicate
[7] = PBMC + LPS(5 ug/ml) + test article 1 uM, Mean
[8] = PBMC + LPS(5 ug/ml) + test article 1 uM, individual replicate
[9] = PBMC + LPS(5 ug/ml) + test article 10 uM, Mean
[10] = PBMC + LPS(5 ug/ml) + test article 10 uM, individual replicate
[11] = PBMC + LPS(5 ug/ml) + test article 100 uM, Mean
[12] = PBMC + LPS(5 ug/ml) + test article 100 uM, individual replicate
[13] = PBMC + test article 0.01 uM, no LPS, Mean
[14] = PBMC + test article 0.01 uM, no LPS, individual replicate
[15] = PBMC + test article 0.1 uM, no LPS, Mean
[16] = PBMC + test article 0.1 uM, no LPS, individual replicate
[17] = PBMC + test article 1 uM, no LPS, Mean
[18] = PBMC + test article 1 uM, no LPS, individual replicate

## CC(C)C[C@H](NC(=O)CNC(=O)[C@H](CC(=O)O)NC(=O)[C@H](CCC(N)=O)NC(=O)CNC(=O)[C@@H]1C[C@@H](O)CN1)C(=O)N[C@@H](C)C(=O)NCC(=O)N1CCC[C@H]1C(=O)N[C@@H](CCCCN)C(=O)O [YY-101] (H-[Hyp]GQDGLAGPK-OH; N-terminus and C-terminus assumed)
[1]
  Concentration, CCL20/MIP-3 alpha: 315.3 pg/mL
  MFI, CCL20/MIP-3 alpha: 346.7
  conc/live cell, CCL20/MIP-3 alpha: 49.1 pg/10^5
[2]
  Concentration, CCL20/MIP-3 alpha: 301.0 pg/mL and 289.9 pg/mL and 355.1 pg/mL
  MFI, CCL20/MIP-3 alpha: 329.0 and 315.5 and 395.5
  conc/live cell, CCL20/MIP-3 alpha: 52.8 pg/10^5 and 40.8 pg/10^5 and 53.8 pg/10^5
[3]
  Concentration, CCL20/MIP-3 alpha: 377.7 pg/mL
  MFI, CCL20/MIP-3 alpha: 423.7
  conc/live cell, CCL20/MIP-3 alpha: 61.2 pg/10^5
[4]
  Concentration, CCL20/MIP-3 alpha: 383.7 pg/mL and 338.9 pg/mL and 410.6 pg/mL
  MFI, CCL20/MIP-3 alpha: 431.0 and 375.5 and 464.5
  conc/live cell, CCL20/MIP-3 alpha: 60.0 pg/10^5 and 56.5 pg/10^5 and 67.3 pg/10^5
[5]
  Concentration, CCL20/MIP-3 alpha: 364.1 pg/mL
  MFI, CCL20/MIP-3 alpha: 406.7
  conc/live cell, CCL20/MIP-3 alpha: 62.5 pg/10^5
[6]
  Concentration, CCL20/MIP-3 alpha: 378.5 pg/mL and 364.4 pg/mL and 349.4 pg/mL
  MFI, CCL20/MIP-3 alpha: 424.5 and 407.0 and 388.5
  conc/live cell, CCL20/MIP-3 alpha: 61.0 pg/10^5 and 70.1 pg/10^5 and 56.4 pg/10^5
[7]
  Concentration, CCL20/MIP-3 alpha: 338.5 pg/mL
  MFI, CCL20/MIP-3 alpha: 375.0
  conc/live cell, CCL20/MIP-3 alpha: 52.1 pg/10^5
[8]
  Concentration, CCL20/MIP-3 alpha: 323.0 pg/mL and 330.0 pg/mL and 362.4 pg/mL
  MFI, CCL20/MIP-3 alpha: 356.0 and 364.5 and 404.5
  conc/live cell, CCL20/MIP-3 alpha: 51.3 pg/10^5 and 46.5 pg/10^5 and 58.4 pg/10^5
[9]
  Concentration, CCL20/MIP-3 alpha: 368.2 pg/mL
  MFI, CCL20/MIP-3 alpha: 411.8
  conc/live cell, CCL20/MIP-3 alpha: 55.3 pg/10^5
[10]
  Concentration, CCL20/MIP-3 alpha: 324.3 pg/mL and 377.7 pg/mL and 402.6 pg/mL
  MFI, CCL20/MIP-3 alpha: 357.5 and 423.5 and 454.5
  conc/live cell, CCL20/MIP-3 alpha: 54.0 pg/10^5 and 59.0 pg/10^5 and 53.0 pg/10^5
[11]
  Concentration, CCL20/MIP-3 alpha: 578.6 pg/mL
  MFI, CCL20/MIP-3 alpha: 677.7
  conc/live cell, CCL20/MIP-3 alpha: 100.0 pg/10^5
[12]
  Concentration, CCL20/MIP-3 alpha: 590.1 pg/mL and 591.7 pg/mL and 553.9 pg/mL
  MFI, CCL20/MIP-3 alpha: 692.5 and 694.5 and 646.0
  conc/live cell, CCL20/MIP-3 alpha: 93.7 pg/10^5 and 95.4 pg/10^5 and 110.8 pg/10^5
[13]
  Concentration, CCL20/MIP-3 alpha: 12.1 pg/mL
  MFI, CCL20/MIP-3 alpha: 11.0
  conc/live cell, CCL20/MIP-3 alpha: 2.5 pg/10^5
[14]
  Concentration, CCL20/MIP-3 alpha: 7.3 pg/mL and 16.8 pg/mL
  MFI, CCL20/MIP-3 alpha: 7.5 and 14.5
  conc/live cell, CCL20/MIP-3 alpha: 1.4 pg/10^5 and 3.5 pg/10^5
[15]
  Concentration, CCL20/MIP-3 alpha: 9.5 pg/mL
  MFI, CCL20/MIP-3 alpha: 9.0
  conc/live cell, CCL20/MIP-3 alpha: 1.8 pg/10^5
[16]
  Concentration, CCL20/MIP-3 alpha: 7.3 pg/mL and 11.6 pg/mL
  MFI, CCL20/MIP-3 alpha: 7.5 and 10.5
  conc/live cell, CCL20/MIP-3 alpha: 1.7 pg/10^5 and 2.0 pg/10^5
[17]
  Concentration, CCL20/MIP-3 alpha: 8.8 pg/mL
  MFI, CCL20/MIP-3 alpha: 8.5
  conc/live cell, CCL20/MIP-3 alpha: 1.6 pg/10^5
[18]
  Concentration, CCL20/MIP-3 alpha: 7.3 pg/mL and 10.2 pg/mL
  MFI, CCL20/MIP-3 alpha: 7.5 and 9.5
  conc/live cell, CCL20/MIP-3 alpha: 1.3 pg/10^5 and 1.9 pg/10^5
PBMC + test article 10 uM, no LPS, Mean
  Concentration, CCL20/MIP-3 alpha: 41.3 pg/mL
